According to PMC6325219, “Preclinical Characterization of NVR 3-778, a First-in-Class Capsid Assembly Modulator against Hepatitis B Virus” (Antimicrobial Agents and Chemotherapy, 2018):
Values joined by “and” are separate entries in the source; they are usually repeats but may differ in a detail not shown here. Equal values may be shown once. “Also recorded” adds a separate entry of the source. Read-outs that look alike come from different tables or passages of the source. Marks after values point to notes of the source that are not given here.

How the values were obtained:
[1] = system: HBV rtL180M/M204V/N236T variant; assay: microbe, parasite or virus in culture; assay type: cell-based, hepatitis B virus
Excerpt: (§1) Plasmids containing HBV DNA with rtN236T, rtA181V, rtA181V/N236T, and rtL180M/M204V/N236T were generated using the GT B WT or rtL180M/M204V DNA-containing plasmids and site-directed mutagenesis (Agilent Technologies). A panel of nine different HBV core variants (cW102G, cW102R, cI105V, cI105L, cI105T, cT109S, cT109M, cT109I, and cY118F) was generated, also using the GT B WT DNA-containing plasmid and site-directed mutagenesis. The full-length genome from all plasmids was sequenced to confirm that only the intended nucleotide change(s) was present. Finally, HBV sequences from genotypes A (GenBank accession number AF305422), C (GenBank accession number AB033550), D (GenBank accession number V01460), E (GenBank accession number AB274971), F (GenBank accession number AB036912), G (GenBank accession number AF160501), and H (GenBank accession number AB375159) were gene synthesized as 1.1 times the genome length together with part of the CMV promoter at the 5′ end. The gene-synthesized piece was validated by sequencing and subcloned into the pCMV-HBV plasmid using the restriction sites SalI and NdeI (Genewiz, USA).
(§2) HepG2 cells were seeded in 96-well plates at a density of 20,000 cells/well and allowed to attach overnight at 37°C in 5% CO2. Cells were cotransfected with the HBV plasmids (100 ng/well) and a Gaussia expression plasmid (10 ng/well) (Thermo Scientific) using the Lipofectamine LTX Plus transfection reagent (Life Technologies). Transfection mixtures were removed after overnight incubation, and cells were treated with serially diluted NVR 3-778 at a final dimethyl sulfoxide (DMSO) concentration of 0.5%. After 3 days of incubation with the compound, the supernatants were collected and secreted Gaussia luciferase was measured using a Gaussia Flash luciferase assay kit (Thermo Scientific). Cells were lysed with 0.33% NP-40 (Thermo Scientific), and the cytoplasmic fractions were treated with 2 units of Turbo DNase (Invitrogen) and 10 units of S7 nuclease (Roche) in CutSmart buffer (New England Biolabs) containing 25 µM CaCl2 (G-Biosciences) at 37°C for 60 min, followed by inactivation of the enzymes at 75°C for 15 min. Samples were diluted into lysis buffer (Affymetrix) containing 2.5 µg proteinase K (Affymetrix) at 50°C for 40 min. Intracellular encapsidated HBV DNA was denatured for 30 min at 25°C in 0.2 M NaOH (Sigma) and incubated with HBV DNA probes designed to hybridize to the minus-strand HBV DNA (Affymetrix). The denatured DNA was subsequently detected using a QuantiGene assay kit, according to the branched DNA (bDNA) assay recommended by the manufacturer (Affymetrix).
(§3) To determine percent inhibition, the mean background signal from wells containing only culture medium was subtracted from the signal for all other samples, and percent inhibition at each compound concentration was calculated by normalization to the signals for HepG2.2.15 cells treated with 0.5% DMSO. […] Both CalcuSyn and MacSynergy II (Ann Arbor, MI) software were used to evaluate the effect of compound combinations ([27]). After data analysis at the 95% confidence level, values of synergy or antagonism of <25 µM^2% were defined as insignificant, those between 25 and 50 µM^2% were defined as minor, those between 50 and 100 µM^2% were defined as moderate, and those of >100 µM^2% were defined as strong.

[2] = system: HBV rtL180M/M204V variant; assay: microbe, parasite or virus in culture; assay type: cell-based, hepatitis B virus
Excerpt: as §1, §2, §3

HBV GT B (wild-type HBV) = assay: Transient-transfection antiviral study in HepG2 cells, GT B (wild-type HBV); assay type: cell-based, hepatitis B virus; conditions: for EC50: Hepatitis B virus; for EC50 FC, wild type: reference, ratio to wild-type HBV
Method: Cells were cotransfected with the HBV plasmids (100 ng/well) and a Gaussia expression plasmid (10 ng/well) (Thermo Scientific) using the Lipofectamine LTX Plus transfection reagent (Life Technologies). Transfection mixtures were removed after overnight incubation, and cells were treated with serially diluted NVR 3-778 at a final dimethyl sulfoxide (DMSO) concentration of 0.5%. After 3 days of incubation with the compound, the supernatants were collected and secreted Gaussia luciferase was measured using a Gaussia Flash luciferase assay kit (Thermo Scientific). […] Samples were diluted into lysis buffer (Affymetrix) containing 2.5 µg proteinase K (Affymetrix) at 50°C for 40 min. Intracellular encapsidated HBV DNA was denatured for 30 min at 25°C in 0.2 M NaOH (Sigma) and incubated with HBV DNA probes designed to hybridize to the minus-strand HBV DNA (Affymetrix). The denatured DNA was subsequently detected using a QuantiGene assay kit, according to the branched DNA (bDNA) assay recommended by the manufacturer (Affymetrix).

HepG2.2.15 cells = assay: Cell viability of HepG2.2.15 cells (ATP levels, CellTiter-Glo); assay type: cell-based; conditions: NVR 3-778 up to 4 μM and LMV up to 1.5 μM, alone or in combination, 6 days
Method: In combination studies, cells were treated with compounds either alone or in combination after combining the compounds in a checkerboard format. In studies examining the effect of human serum, serially diluted NVR 3-778 was added into cell culture medium containing 0% to 40% human serum (BioreclamationIVT). Cells were incubated with the compounds for 3 days, after which the medium was removed, fresh medium containing the compounds was added to the cells, and the cells were incubated for another 3 days prior to harvesting of the supernatants or cells for antiviral assays. To quantify intracellular encapsidated rcDNA or encapsidated pgRNA, cells were first solubilized using lysis buffer containing 1% NP-40 and 10 mM CaCl2. The cytoplasmic fraction was then treated with S7 nuclease (6 units) to remove nonencapsidated nucleic acids, after which the S7 nuclease was inactivated by the addition of EDTA (0.5 M). […] The levels of HBV DNA were determined by a bDNA assay as described above (Affymetrix). Supernatants or cell lysates containing HBV RNA were treated with proteinase K (2.5 µg) at 50°C for 40 min, transferred to a capture plate containing HBV RNA probe sets, and hybridized overnight at 55°C. Captured HBV RNA was measured by the addition of a chemiluminescent substrate using a QuantiGene assay (Affymetrix). […] At day 6, the CellTiter-Glo reagent was added to the cells and viability was determined according to the manufacturer’s protocol (Promega). Luminescence signals were measured at 0.2 s using a Victor X4 multimode plate reader (PerkinElmer).

[3] = Hepatocyte stability, dog hepatocytes; assay type: in vitro ADME; conditions: 120 min incubation
Method: (§4) Following in vitro incubation for 120 min with human, mouse, or dog hepatocytes, >85% of the NVR 3-778 remained intact. […] The fewest number of metabolites was found following incubation with human hepatocytes, where 92% of the NVR 3-778 remained after a 120-min incubation.

plasma proteins = assay: Plasma protein binding by equilibrium dialysis, human; assay type: in vitro ADME; conditions: 2 µM
Excerpt: The binding of NVR 3-778 to the plasma proteins of mouse, rat, dog, monkey, and human was investigated by equilibrium dialysis.

[4] = Hepatocyte stability, mouse hepatocytes; assay type: in vitro ADME; conditions: 120 min incubation
Method: as §4

[5] = Hepatocyte stability, human hepatocytes; assay type: in vitro ADME; conditions: 120 min incubation
Method: as §4

HBV (GT C) = system: HBV (GT C); parameters: method as in PMID 29079518; conditions: cited from earlier work
[6] = ratio of mean EC50 against variant over WT HBV, HepG2 cells

Structure (SMILES) | EC50 ([1]; Hepatitis B virus, HepG2, read-out: EC50, rtL180M/M204V/N236T variant) | EC50 ([2]; Hepatitis B virus, HepG2, read-out: EC50 (mean), rtL180M/M204V variant) | EC50 (HBV GT B (wild-type HBV); HepG2, read-out: WT EC50) | EC50 FC, wild type (HBV GT B (wild-type HBV)) | Effect on cell viability (HepG2.2.15 cells) | NVR 3-778 remaining intact [3] | Mean percent binding to plasma proteins (plasma proteins) | NVR 3-778 remaining intact [4] | EC50 fold change, rtL180M/M204V/N236T [1, 6] | EC50 fold change, rtL180M/M204V [2, 6] | EC50 (HBV GT B (wild-type HBV); HepG2, 72 h, read-out: EC50 (mean), HBV GT B) | EC50 (HBV GT B (wild-type HBV); HepG2, read-out: EC50, wild type HBV) | NVR 3-778 remaining intact [5] | Antiviral activity compared with ETV (HBV (GT C); HBV-infected humanized mice, 405 mg/kg BID) | Reduction of serum HBV DNA and HBV RNA, combination with pegIFN versus NVR 3-778 alone, pegIFN alone or entecavir alone (HBV (GT C); HBV-infected humanized mice) | Effect on serum HBV DNA and HBV RNA levels (HBV (GT C); humanized mice infected with GT C HBV)
Nc1ccn([C@@H]2CS[C@H](CO)O2)c(=O)n1 [LMV, lamivudine, reference compound] | > 100000 nM | > 100000 nM | 530 ± 120 nM | 1 fold | did not affect cell viability |  |  |  |  |  |  |  |  |  |  | 
O=C(Nc1cc(F)c(F)c(F)c1)c1ccc(F)c(S(=O)(=O)N2CCC(O)CC2)c1 [NVR 3-778] |  |  | 310 ± 100 nM | 1 fold | did not affect cell viability | > 85% | approximately 98% | > 85% | 1.4 ± 0.5^d fold | 1.3 ± 0.6^d fold | 200 nM | 230 ± 110 nM | > 85% and 92% | antiviral activity similar to that of the nucleoside analog ETV | greater reduction in both serum HBV DNA and HBV RNA levels | effective at reducing both serum HBV DNA and HBV RNA levels; also recorded: significant reductions in HBV DNA and secreted HBV RNA levels
